Reference: patent US20080124385A1, “Methods for Transmembrane Treatment and Prevention of Otitis Media” (Piedmont Pharmaceuticals,LLC., priority 2004, published 2008)

System: Haemophilus influenzae
Test: Chinchilla model of otitis media (middle ear inoculated with Haemophilus influenzae)
Type: in vivo, Chinchilla langer
Details: oral gavage, 20 mg/kg BID for 6 days; 3 animals/group; positive control
Method: To establish and evaluate the animal model, each chinchilla was inoculated with Haemophilus influenzae directly into the middle ear of each ear by transbullar injection at a concentration of 100 cfu in a volume of 0.2 mL. Each chinchilla was given an otoscope ear exam prior to being placed on study. Dosing with a composition of the invention or control oral amoxicillin began approximately 48 hours after the bacterial inoculation. All animals were administered Buprenorphine 0.05 mg/kg twice a day subcutaneously for analgesia for the duration of the study.
At the end of the dosing period (8 days after bacterial inoculation), each animal was euthanized, their ear canals washed with saline, and examined. In particular, samples from the middle ear from each chinchilla were collected. One ear sample was cultured overnight per laboratory procedures. Approximately 24 hours after the samples plated out, they were counted and the colony forming units (cfu) recorded.
The positive control article (amoxicillin) was administered orally by gavage to three chinchillas twice per day for 6 days, approximately 8 hours apart. 2, 4 or 6 drops of ofloxacin 0.3% liposome formulation or ciprofloxacin 0.3% liposome formulation were administered to two groups of three chinchillas each as a maximal feasible dose for these animals.

SMILES: CC1(C)S[C@@H]2[C@H](NC(=O)[C@H](N)c3ccc(O)cc3)C(=O)N2[C@H]1C(=O)O [Amoxicillin, amoxicillin]
- Active infection present after 6 days: No active infection present in any animal
